Experimental findings from patent US6407104B1, “Pyrrolo[1,2-a]pyrazine spla2 inhibitor” (Shionogi & Co., Ltd., priority 1998, dated 2002) are described below.

Data set [1] deals with T1, recombinant human secretory phospholipase A2 (Homo sapiens, UniProt P14555).
T1 sequence (P14555 21-144): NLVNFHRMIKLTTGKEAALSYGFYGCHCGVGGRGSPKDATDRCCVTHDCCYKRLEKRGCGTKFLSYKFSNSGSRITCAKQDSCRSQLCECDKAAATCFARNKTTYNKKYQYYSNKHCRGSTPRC
As to the kind of experiment: Inhibition Test of Human Secretory Phospholipase A2 (chromogenic assay). Type of data set: biochemical. The following applies: sPLA2 50 ng/well, 40° C., 30 minutes, OD 405 nm, 96 well microtiterplate. The source says:
Test Example: Inhibition Test of Human Secretory Phospholipase A2
In order to identify and evaluate an inhibitor of recombinant human secretory phospholipase A2, the following chromogenic assay is utilized. The assay herein has been applied for high volume screening wherein 96 well microtiterplate is used. A general explanation for such assay is described in “Analysis of Human Synovial Fluid Phospholipase A2 on Short Chain Phosphatidylcholine-Mixed Micelles: Development of a Spectrophotometric Assay Suitable for a Micortiterplate Reader” (Analytical Biochemistry, 204, pp 190-197, 1992 by Laure. J. Reynolds. Lori L. Hughes and Edward A. Dennis: the disclosure of which is incorporated herein for reference.
pH 7.5 (adjusted with NaOH)
pH 4.5 (adjusted with acetic acid)
1 mg of sPLA2 is dissolved in 1 ml of an enzyme buffer. Thereafter, the solution is maintained at 4° C.
In the assay, 5 μl of the solution is diluted with 1995 μl of the reaction buffer to be used.
198 mg of 5,5′-dithiobis-2-[…] (manufactured by Wako Pure Chemicals) is dissolved in 100 ml of H2O
H 7.5 (adjusted with NaOH)
100 mg of racemic 1,2-bis(heptanoylthio)-1,2-dideoxy-sn-glycero-3-phospholylcholine is dissolved in 1 ml of chloroform.
624.9 mg of Triton-X 100 is dissolved in the reaction buffer.
Enzyme Reaction: for 1 Plate of Microtiterplate
1) 0.106 ml of the substrate solution is put in a centrifugal tube, and nitrogen gas is jetted to remove the solvent. 0.54 ml of Triton-X 100 is added thereto, the mixture is stirred, thereafter it is sonified in a bath type sonification to dissolve. To the resulting product are added 17.8 ml of the reaction buffer and 0.46 ml of DTNB, and 0.18 ml each of the admixture is poured to wells of the 96 well microtiterplate.
2) 10 μl of a test compound (or solvent blank) are added in accordance with alignment of plates which has been previously set.
3) Incubation is effected at 40° C. for 15 minutes.
4) 20μl of an enzyme solution (sPLA2) which has been previously diluted (50 ng/well) are added to start reaction (40° C., 30 minutes).
5) Changes in absorbancy for 30 minutes are measured by a plate reader, and inhibition activity was calculated (OD: 405 nm).
6) IC50 was determined by plotting log concentration with respect to inhibition values within 10% to 90% inhibiting range.

Broadly, the IC50 is the concentration that gives 50% inhibition. One may read the melting point as the temperature of the solid-liquid transition. In turn, `CCc1c(C(=O)C(N)=O)c2c(OCC(=O)O)nc(C)cn2c1Cc1ccccc1Cc1ccccc1` [Compound I-28] yielded a melting point of 180.5 to 182.5 °C. Moreover, the IC50 in data set [1] turned out to be 7 nM.

Compound `CCc1c(C(=O)C(N)=O)c2c(OCC(=O)OC)nc(C)cn2c1Cc1ccccc1-c1ccc(F)cc1` [Compound I-29] yielded a melting point of 147 to 149 °C. For the same compound, the IC50 in data set [1] was 56 nM.

Consider `CCc1c(C(=O)C(N)=O)c2c(OCC(=O)O)nc(C)cn2c1Cc1ccccc1-c1ccc(F)cc1` [Compound I-30], for which the melting point was in the range of 175 to 177 °C. For the same compound, in data set [1], the half-inhibitory concentration (IC50) came out at 8 nM.

On to `CCc1c(C(=O)C(N)=O)c2c(OCC(=O)OC)nc(C)cn2c1Cc1ccc(F)cc1F` [Compound I-31], for which the melting point lay within 161 to 163 °C. Moreover, the IC50 in data set [1] turned out to be 1170 nM.

`CCc1c(C(=O)C(N)=O)c2c(OCC(=O)O)nc(C)cn2c1Cc1ccc(F)cc1F` [Compound I-32] returned a melting point of 208 to 210 °C. Moreover, in data set [1], the IC50 amounted to 28 nM.

For `CCc1c(C(=O)C(N)=O)c2c(OCC(=O)OC)nc(C)cn2c1Cc1ccc(OC)cc1` [Compound I-33], the melting point lay within 189 to 190 °C. The IC50 in data set [1] amounted to 703 nM.

On to `CCc1c(C(=O)C(N)=O)c2c(OCC(=O)O)nc(C)cn2c1Cc1ccc(OC)cc1` [Compound I-34], for which the melting point lay in the range of 200 to 201.5 °C. Moreover, the IC50 in data set [1] was found to be 26 nM.

`CCc1c(C(=O)C(N)=O)c2c(OCC(=O)OC)nc(C)cn2c1Cc1cccc(F)c1` [Compound I-35] returned a melting point of 179.5 to 181 °C. For the same compound, in data set [1], the concentration for half-maximal inhibition (IC50) came out at 182 nM.

`CCc1c(C(=O)C(N)=O)c2c(OCC(=O)O)nc(C)cn2c1Cc1cccc(F)c1` [Compound I-36] yielded a melting point of 190.5 to 193 °C. The IC50 in data set [1] was determined as 11 nM.

Regarding `CCc1c(C(=O)C(N)=O)c2c(OCC(=O)OC)nc(CO)cn2c1Cc1ccccc1` [Compound I-37], the melting point lay in the range of 201 to 202 °C. In addition, the IC50 in data set [1] was 726 nM.

Take `CCc1c(C(=O)C(N)=O)c2c(OCC(=O)O)nc(CO)cn2c1Cc1ccccc1` [Compound I-38]: the melting point lay within 211 to 212 °C. Also, the IC50 in data set [1] stood at 33 nM.

`CCc1c(C(=O)C(N)=O)c2c(OCC(=O)OC)nc(C(C)C)cn2c1Cc1ccccc1` [Compound I-39] displayed a melting point of 190 to 191 °C. Moreover, the IC50 in data set [1] stood at 151 nM.

In turn, `CCc1c(C(=O)C(N)=O)c2c(OCC(=O)O)nc(C(C)C)cn2c1Cc1ccccc1` [Compound I-40] yielded a melting point of 211 to 213 °C. Moreover, in data set [1], the IC50 was 12 nM.

As to `CCc1cn2c(Cc3ccccc3)c(CC)c(C(=O)C(N)=O)c2c(OCC(=O)OC)n1` [Compound I-41], the melting point was in the range of 154 to 156 °C. In addition, in data set [1], the IC50 was determined as 107 nM.

`CCc1cn2c(Cc3ccccc3)c(CC)c(C(=O)C(N)=O)c2c(OCC(=O)O)n1` [Compound I-42]: the melting point was in the range of 197 to 198 °C. For the same compound, the IC50 in data set [1] came out at 10 nM.

`CCc1c(C(=O)C(N)=O)c2c(OCC(=O)OC)nc(-c3ccccc3)cn2c1Cc1ccccc1` [Compound I-43] yielded a melting point of 203 to 205 °C. Besides, the 50% inhibitory concentration (IC50) in data set [1] amounted to 41 nM.

`CCc1c(C(=O)C(N)=O)c2c(OCC(=O)O)nc(-c3ccccc3)cn2c1Cc1ccccc1` [Compound I-44] showed a melting point of 233 to 234 °C. Also, the IC50 in data set [1] was 7 nM.

`CCc1c(C(=O)C(N)=O)c2c(OCC(=O)OC)nc(CC(C)C)cn2c1Cc1ccccc1` [Compound I-45] came in with a melting point of 129 to 130 °C. The IC50 in data set [1] came out at 117 nM.

As for `CCc1c(C(=O)C(N)=O)c2c(OCC(=O)O)nc(CC(C)C)cn2c1Cc1ccccc1` [Compound I-46], the melting point is 216 to 217 °C. Further, the 50% inhibitory concentration (IC50) in data set [1] turned out to be 10 nM.

Regarding `CCc1c(C(=O)C(N)=O)c2c(OCC(=O)OC)nc(Cc3ccccc3)cn2c1Cc1ccccc1` [Compound I-49], the melting point fell in the range of 178 to 180 °C. Also, the IC50 in data set [1] came to 211 nM.

Consider `CCc1c(C(=O)C(N)=O)c2c(OCC(=O)O)nc(Cc3ccccc3)cn2c1Cc1ccccc1` [Compound I-50], for which the melting point was in the range of 200 to 202 °C. The IC50 in data set [1] was 17 nM.

`CCc1c(C(=O)C(N)=O)c2c(OCC(=O)OC)nc(C)cn2c1Cc1ccccc1-c1cccs1` [Compound I-51]: the melting point was 134.5 to 136 °C. In data set [1], the IC50 turned out to be 61 nM.

Consider `CCc1c(C(=O)C(N)=O)c2c(OCC(=O)OC)nc(C)cn2c1Cc1ccccc1C#Cc1ccccc1` [Compound I-53], for which the melting point was in the range of 147 to 149 °C. The IC50 in data set [1] was determined as 59 nM.

For `CCc1c(C(=O)C(N)=O)c2c(OCC(=O)OC)nc(C)cn2c1Cc1ccccc1Oc1ccccc1` [Compound I-55], the melting point was 161 to 163 °C. The IC50 in data set [1] was determined as 32 nM.

`CCc1c(C(=O)C(N)=O)c2c(OCC(=O)O)nc(C)cn2c1Cc1ccccc1Oc1ccccc1` [Compound I-56, [7-Ethyl-3-methyl-8-oxamoyl-6-(2-phenyloxybenzyl)pyrrolo [1,2-a]pyrazin-1-yl]oxyacetic acid] showed a melting point of 208 to 210 °C. In addition, the IC50 in data set [1] was 6 nM.

In turn, `CCc1c(C(=O)C(N)=O)c2c(OCC(=O)OC)nc(C)cn2c1Cc1cccc(-c2ccc(C)s2)c1` [Compound I-63] yielded a melting point of 179.5 to 181 °C. For the same compound, in data set [1], the IC50 was 57 nM.

`CCc1c(C(=O)C(N)=O)c2c(OCC(=O)O)nc(C)cn2c1Cc1cccc(-c2ccc(C)s2)c1` [Compound I-64] had a melting point of 190.5 to 193 °C. Besides, the half-inhibitory concentration (IC50) in data set [1] is 6 nM.

`CCc1c(C(=O)C(N)=O)c2c(OCC(=O)OC)nc(C)cn2c1Cc1ccccc1-c1ccc(C)cc1` [Compound I-69] came in with a melting point of 167.5 to 169.5 °C. The IC50 in data set [1] was 33 nM.

As to `CCc1c(C(=O)C(N)=O)c2c(OCC(=O)O)nc(C)cn2c1Cc1ccccc1-c1ccc(C)cc1` [Compound I-70], the melting point is 179.5 to 181.5 °C. Moreover, the IC50 in data set [1] turned out to be 5 nM.

`CCc1c(C(=O)C(N)=O)c2c(OCC(=O)OC)nc(C)cn2c1Cc1ccccc1C(=O)c1ccccc1` [Compound I-71] displayed a melting point of 190 to 192 °C. For the same compound, the IC50 in data set [1] stood at 901 nM.

As to `CCc1c(C(=O)C(N)=O)c2c(OCC(=O)O)nc(C)cn2c1Cc1ccccc1C(=O)c1ccccc1` [Compound I-72], the melting point was 131 to 133 °C. Moreover, the IC50 in data set [1] worked out at 13 nM.

As to `CCc1c(C(=O)C(N)=O)c2c(OCC(=O)OC)nc(C)cn2c1Cc1ccccc1CCc1ccccc1` [Compound I-73], the melting point fell in the range of 215 to 217 °C. Besides, in data set [1], the IC50 was 129 nM.

Compound `CCc1c(C(=O)C(N)=O)c2c(OCC(=O)O)nc(C)cn2c1Cc1ccccc1CCc1ccccc1` [Compound I-74] displayed a melting point of 189 to 191 °C. The IC50 in data set [1] was found to be 6 nM.

Consider `COC(=O)COc1nc(C)cn2c(Cc3ccccc3)c(C3CC3)c(C(=O)C(N)=O)c12` [Compound I-75], for which the melting point lay in the range of 210 to 211.5 °C. Moreover, the IC50 in data set [1] worked out at 1460 nM.

Compound `Cc1cn2c(Cc3ccccc3)c(C3CC3)c(C(=O)C(N)=O)c2c(OCC(=O)O)n1` [Compound I-76] came in with a melting point of 194.5 to 196 °C. The IC50 in data set [1] was found to be 29 nM.

For the compound `COC(=O)COc1nc(C)cn2c(Cc3ccc(F)cc3)c(C3CC3)c(C(=O)C(N)=O)c12` [Compound I-77], the melting point was in the range of 179 to 182.5 °C. For the same compound, in data set [1], the IC50 turned out to be 1380 nM.

`Cc1cn2c(Cc3ccc(F)cc3)c(C3CC3)c(C(=O)C(N)=O)c2c(OCC(=O)O)n1` [Compound I-78] gave a melting point of 185 to 187 °C. The IC50 in data set [1] turned out to be 60 nM.

The compound `CCc1c(C(=O)C(N)=O)c2c(OCC(=O)OC)nc(C3CCCCC3)cn2c1Cc1ccccc1` [Compound I-79] registered a melting point of 193 to 194 °C. For the same compound, in data set [1], the IC50 was determined as 62 nM.

`CCc1c(C(=O)C(N)=O)c2c(OCC(=O)O)nc(C3CCCCC3)cn2c1Cc1ccccc1` [Compound I-80] registered a melting point of 227 to 230 °C. For the same compound, the IC50 in data set [1] came out at 6 nM.

For the compound `CCc1c(C(=O)C(N)=O)c2c(OCC(=O)OC)nc(C3CCCCC3)cn2c1Cc1ccccc1-c1ccccc1` [Compound I-81], the melting point was 161.5 to 162.5 °C. Besides, the IC50 in data set [1] came to 201 nM.
